The structures appear in SMILES notation. In brackets after ≈: the same amount, converted by molar mass.

In DBAASP one finds MIC data, which are given here for two compounds.

What all share (assay): ≥ marks a high value that may be exact or a test limit, other limits are often not marked, values filed in µg/mL are converted to µM
In experiment [1] the test system is Streptococcus pyogenes KCTC 3096.
For experiment [2], the system named is Pseudomonas aeruginosa KCTC 1637.
The test system of experiment [3] is Bacillus subtilis KCTC 1918.
Experiment [4] concerns Staphylococcus aureus KCTC 1621.
Experiment [5] has as its system Salmonella typhimurium KCTC 1926.
In experiment [6] the test system is Escherichia coli KCTC 1682.
Experiment [7] deals with Aspergillus fumigatus KCTC 4165.
The subject of experiment [8] is Candida albicans TIMM 1768.
Experiment [9] has as its system Bacillus subtilis DSM 347.
Experiment [10] relates to Klebsiella pneumoniae DSM 681.
The subject of experiment [11] is Escherichia coli BL21AI.
Experiment [12] concerns Micrococcus luteus ATCC 10240.
In experiment [13] the test system is Escherichia coli DSM 10233.
Experiment [14] deals with Escherichia coli 1103.

A word on the MIC: it is the least concentration at which growth counts as inhibited. A higher MIC goes with a need for much substance. For `CC[C@H](C)[C@H](NC(=O)[C@H](CCCCN)NC(=O)[C@H](CCCCN)NC(=O)[C@H](CC(C)C)NC(=O)[C@H](CCCCN)NC(=O)[C@H](CCC(=O)O)NC(=O)CN)C(=O)NCC(=O)N[C@@H](CCCCN)C(=O)N[C@@H](CCCCN)C(=O)N[C@H](C(=O)N[C@@H](CCCCN)C(=O)N[C@@H](CC(N)=O)C(=O)N[C@@H](Cc1ccccc1)C(=O)N[C@@H](Cc1ccccc1)C(=O)N[C@@H](CCC(N)=O)C(=O)N[C@@H](CCCCN)C(=O)N[C@@H](CC(C)C)C(=O)O)[C@@H](C)CC` [GEKLKKIGKKIKNFFQKL], the minimum inhibitory concentration (MIC) in [1] was found to be 25 µM (≈ 53.7 µg/mL); in experiment [2] it was 3.12 µM (≈ 6.7 µg/mL); in experiment [3], 12.5 µM (≈ 26.8 µg/mL); in experiment [4] it was 12.5 µM (≈ 26.8 µg/mL); in [5], 6.25 µM (≈ 13.4 µg/mL); in experiment [6], 12.5 µM (≈ 26.8 µg/mL). The minimum inhibitory concentration (MIC) in experiment [7] and in experiment [8] was 25 µM (≈ 53.7 µg/mL) throughout.

Turning to `CC[C@H](C)[C@H](NC(=O)[C@@H]1CCCN1C(=O)[C@H](CCC(N)=O)NC(=O)[C@@H]1CCCN1C(=O)[C@H](CCCN=C(N)N)NC(=O)[C@@H]1CCCN1C(=O)[C@@H]1CCCN1C(=O)[C@H](Cc1cnc[nH]1)NC(=O)[C@@H]1CCCN1C(=O)[C@H](CCCN=C(N)N)NC(=O)[C@@H](N)CC(C)C)C(=O)N[C@@H](Cc1ccc(O)cc1)C(=O)N[C@H](C(=O)N1CCC[C@H]1C(=O)N[C@@H](CCCN=C(N)N)C(=O)N[C@@H](CC(N)=O)C(=O)N[C@@H](CC(N)=O)C(=O)NCC(N)=O)C(C)C` [LRPHPPRPQPIYVPRNNG], the MIC in [9], in experiment [10], in experiment [11], in experiment [12], in [13] and in experiment [14] was at least 59.3 µM each time.
